Measured values from patent publication US6022868A, “Substituted azacyclic or azabicyclic compounds” (Novo Nordisk Als, priority 1995, dated 2000).

Legend:
[1] = target: T1, nicotinic acetylcholine receptors (Rattus norvegicus, UniProt P09483+P12390); experiment: inhibition of specific binding of 3H-methylcarbamylcholine (3H-MCC) to rat cortical receptors; details: for IC50: rat cortical receptors, 3H-MCC 2 nM, 0° C., 60 min; for Oxo/MCC Ratio: selectivity for nicotinic (3H-MCC) over muscarinic (3H-Oxo) receptors, rat cortex
T1 construct: Fresh or frozen rat, brain tissue (hippocampus or cortex) was homogenized in assay buffer; from tissue; host or cells: rat brain tissue (hippocampus or cortex)
T1 sequence (P09483 31-630): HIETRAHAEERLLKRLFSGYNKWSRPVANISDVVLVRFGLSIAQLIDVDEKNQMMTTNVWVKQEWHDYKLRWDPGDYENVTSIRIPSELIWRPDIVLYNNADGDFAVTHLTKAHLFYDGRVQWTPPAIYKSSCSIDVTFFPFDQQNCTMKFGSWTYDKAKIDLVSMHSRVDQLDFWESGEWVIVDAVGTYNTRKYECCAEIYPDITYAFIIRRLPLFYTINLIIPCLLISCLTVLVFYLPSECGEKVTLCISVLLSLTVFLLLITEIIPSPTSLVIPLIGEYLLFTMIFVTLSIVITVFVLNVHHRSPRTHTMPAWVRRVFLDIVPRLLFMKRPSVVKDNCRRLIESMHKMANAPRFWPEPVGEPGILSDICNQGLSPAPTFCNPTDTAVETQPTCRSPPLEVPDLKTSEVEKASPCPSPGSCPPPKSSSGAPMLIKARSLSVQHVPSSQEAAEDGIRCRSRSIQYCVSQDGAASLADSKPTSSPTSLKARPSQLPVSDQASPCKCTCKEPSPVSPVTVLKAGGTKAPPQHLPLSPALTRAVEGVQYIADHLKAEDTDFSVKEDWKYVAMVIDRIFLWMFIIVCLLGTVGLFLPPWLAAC
T1 sequence (P12390 25-500): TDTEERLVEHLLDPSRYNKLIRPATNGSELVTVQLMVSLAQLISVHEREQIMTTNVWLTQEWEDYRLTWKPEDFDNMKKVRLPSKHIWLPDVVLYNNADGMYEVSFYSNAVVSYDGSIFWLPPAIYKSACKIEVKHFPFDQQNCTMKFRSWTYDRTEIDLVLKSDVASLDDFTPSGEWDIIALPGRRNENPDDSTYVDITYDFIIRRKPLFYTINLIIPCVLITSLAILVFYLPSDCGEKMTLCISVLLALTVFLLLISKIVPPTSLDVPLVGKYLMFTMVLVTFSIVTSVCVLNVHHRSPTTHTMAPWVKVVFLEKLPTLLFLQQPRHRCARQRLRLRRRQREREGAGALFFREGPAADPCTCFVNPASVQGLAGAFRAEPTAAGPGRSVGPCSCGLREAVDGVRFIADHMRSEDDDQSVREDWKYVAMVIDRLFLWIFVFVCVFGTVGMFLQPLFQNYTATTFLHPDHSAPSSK
Description: The pharmacological properties of the compounds of the invention can be illustrated by determining their capability to inhibit the specific binding of ^3 H-methylcarbamylcholine (^3 H-MCC) (Abood and Grassi, Biochem. Pharmacol., Vol. 35, pp. 4199-4202, (1986)).
^3 H-MCC labels the nicotinic receptors in the CNS. The inhibitory effect on ^3 H-MCC binding reflects the affinity for nicotinic acetylcholine receptors.
Fresh or frozen rat, brain tissue (hippocampus or cortex) was homogenized in assay buffer (5OmM Tris--HCI, pH 7.4, 120 mM NaCI, 5 mM KCI, 2 mM CaCI21 1mM MgCI2) and centrifuged for 10 min. at 40.000×g.Pellets were subsequently reconstituted in assay buffer and an appropriate amount of tissue sample was mixed in tubes with ^3 H--methylcarbamylcholine (NEN, NET--951; final concentration 2 nM) and test drug. The tubes were incubated at 0° C. for 60 min. Unbound ligand was separated from bound ligand by vacuum filtration through GF/B filters presoaked in 0.5 % polyethylenimine. Filters were washed three times with 5 ml wash buffer (50mM Tris--HCI, pH 7.4) and transferred to vials. 4 ml scintillation fluid was added and the radioactivity was measured by scintillation counting. Unspecific binding was measured with 10 μM nicotine.
The IC50 values of the test compounds were determined by nonlinear regression analyses (GraphPad InPlot).
Table I illustrates the affinity of the compounds of the present invention for nicotinic and muscarinic receptors as determined by ^3 H-MCC and ^3 H-Oxo binding to rat cortical receptors. The compounds, however, show selective affinity for nicotinic receptors as compared to muscarinic receptors, i.e OXO/MCC >1.

[2] = target: muscarinic acetylcholine receptors; experiment: inhibition of specific binding of 3H-Oxotremorine-M (3H-Oxo) to rat cortical receptors; details: 3H-Oxo 1.0 nM, 25° C., 30 min
Description: Furthermore, the pharmacological properties of the compounds of the invention can also be illustrated by determining their capability to inhibit the specific binding of ^3 H-Oxotremorine--M (^3 H-Oxo). Birdsdall N.J.M., Hulme E.C., and Burgen A.S.V. (1980). "The Character of Muscarinic Receptors in Different Regions of the Rat Brain". Proc. Roy. Soc. London (Series B) 207,1.
^3 H-Oxo labels muscarinic receptor in the CNS (with a preference for agonist domains of the receptors). Three different sites are labelled by ^3 H-Oxo. […] Using the present experimental conditions only the high and medium affinity sites are determined.
The inhibitory effects of compounds on ^3 H--Oxo binding reflects the affinity for muscarinic acetylcholine receptors.
All preparations are performed at 0-4° C. unless otherwise indicated. […]
The final pellet is homogenized in 20 mM Hepes pH: 7.4 (100 ml per g of original tissue) and used for binding assay. […] Non-specific binding is determined in triplicate using arecoline (1 ug/ml, final concentration) as the test substance. […] The amount of radioactivity on the filters are determined by conventional liquid scintillation counting. […]
Table I illustrates the affinity of the compounds of the present invention for nicotinic and muscarinic receptors as determined by ^3 H-MCC and ^3 H-Oxo binding to rat cortical receptors. […]

[3] = in vivo; cited from earlier work
[4] = system: dopamine release in the nucleus accumbens; details: cited from earlier work
[5] = system: dopaminergic effects in various behavioral models; details: cited from earlier work
substantia nigra = details: chronic nicotine; cited from earlier work

| SMILES | IC50 [1] [µM] | Oxo/MCC Ratio [1] | IC50 [2] [µM] | effect in Tourette's syndrome [3] | stimulation of dopamine release, nucleus accumbens versus striatum [4] | potentiation of dopaminergic effects [5] | protection against cell loss in the substantia nigra caused by lesioning (substantia nigra) |
| --- | --- | --- | --- | --- | --- | --- | --- |
| Cc1cc(/C=C2/CCCN(C)C2)on1.O=C(O)C(=O)O [Compound 1, (Z)-3-(3-Methyl-5-isoxazolyl)methylene-1-methylpiperidine oxalate] | 3.05 | 1.7 | 5.15 | – | – | – | – |
| Cc1cc(/C=C2/CCCNC2)on1.Cl [Compound 5, (Z)-3-(3-Methyl-5-isoxazolyl)methylenepiperidine hydrochloride] | 0.1 | 100 | 10 | – | – | – | – |
| CN1CCCC1c1cccnc1 (stereo not shown) [nicotine] | – | – | – | beneficial effects in Tourette's syndrome | stimulates dopamine release in the nucleus accumbens more potently than in striatum | will potentiate dopaminergic effects in various behavioral models | may protect against cell loss in the substantia nigra caused by lesioning |
